ChEMBL document CHEMBL4145486, “Design, synthesis and biological evaluation of LX2343 derivatives as neuroprotective agents for the treatment of Alzheimer's disease” (Eur J Med Chem, 2018)
Calls of active or inactive are those of the source. The rule behind the calls is not given here.

How the values were obtained:
[1] = tested on: SH-SY5Y; experiment: Neuroprotective activity against STZ induced cell death of human SH-SY5Y cells after 24 hrs by MTT assay; type: functional, cell-based
[2] = tested on: Mus musculus; experiment: Antialzheimer activity in APP1/PS1 transgenic mouse assessed as decrease in prolonged path length at 30 mg/kg, ip administered 100 days prior to testing and measured at day 6 post continuous dosing by Morris water maze test; type: functional, organism-based
[3] = tested on: Mus musculus; experiment: Toxicity in APP1/PS1 transgenic mouse assessed as change in swimming speed at 15 to 30 mg/kg, ip administered 100 days; type: organism-based; conditions: in vivo, 2400 h
[4] = target: Amyloid-beta precursor protein (Homo sapiens) (UniProt P05067); experiment: Inhibition of STZ induced beta amyloid (unknown origin) deposition in HEK293 cells harboring APPSW mutant at 20 uM by ELISA; type: cell-based
Amyloid-beta precursor protein (Homo sapiens), sequence (P05067 whole entry): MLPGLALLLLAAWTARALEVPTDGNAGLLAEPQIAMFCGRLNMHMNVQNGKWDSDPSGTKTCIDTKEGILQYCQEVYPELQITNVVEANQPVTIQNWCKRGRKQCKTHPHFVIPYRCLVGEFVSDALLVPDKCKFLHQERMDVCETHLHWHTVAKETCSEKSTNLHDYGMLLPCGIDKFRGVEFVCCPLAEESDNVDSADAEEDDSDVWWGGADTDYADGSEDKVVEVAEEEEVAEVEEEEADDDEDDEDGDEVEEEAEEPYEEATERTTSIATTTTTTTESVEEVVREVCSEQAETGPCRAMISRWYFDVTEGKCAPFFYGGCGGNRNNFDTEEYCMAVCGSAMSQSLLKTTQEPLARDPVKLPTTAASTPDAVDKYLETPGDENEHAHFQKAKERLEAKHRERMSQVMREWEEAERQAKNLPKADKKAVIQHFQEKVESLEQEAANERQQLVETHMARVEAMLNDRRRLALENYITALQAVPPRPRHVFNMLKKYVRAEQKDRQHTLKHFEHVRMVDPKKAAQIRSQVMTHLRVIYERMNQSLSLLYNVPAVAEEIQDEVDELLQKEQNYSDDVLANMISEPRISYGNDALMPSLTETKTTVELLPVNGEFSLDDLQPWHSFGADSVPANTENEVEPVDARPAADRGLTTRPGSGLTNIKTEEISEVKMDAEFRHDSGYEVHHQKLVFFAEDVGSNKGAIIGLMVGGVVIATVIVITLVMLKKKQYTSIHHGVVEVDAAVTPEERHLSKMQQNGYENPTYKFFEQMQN

[5] = tested on: Mus musculus; experiment: Toxicity in APP1/PS1 transgenic mouse assessed as effect on liver function at 15 to 30 mg/kg, ip administered 100 days; type: organism-based; conditions: in vivo, 2400 h
[6] = tested on: Mus musculus; experiment: Toxicity in APP1/PS1 transgenic mouse assessed as change in body weight at 15 to 30 mg/kg, ip administered 100 days; type: organism-based; conditions: in vivo, 2400 h
[7] = target: Amyloid-beta precursor protein (Homo sapiens) (UniProt P05067); experiment: Inhibition of STZ induced beta amyloid clearance in human SH-SY5Y cells by ELISA; type: cell-based
[8] = target: Microtubule-associated protein tau (Homo sapiens) (UniProt P10636); experiment: Inhibition of STZ induced tau hyperphosphorylation at ser396 residues in human SH-SY5Y cells at 20 uM by immunohistochemical assay; type: cell-based
Microtubule-associated protein tau (Homo sapiens), sequence (P10636 whole entry): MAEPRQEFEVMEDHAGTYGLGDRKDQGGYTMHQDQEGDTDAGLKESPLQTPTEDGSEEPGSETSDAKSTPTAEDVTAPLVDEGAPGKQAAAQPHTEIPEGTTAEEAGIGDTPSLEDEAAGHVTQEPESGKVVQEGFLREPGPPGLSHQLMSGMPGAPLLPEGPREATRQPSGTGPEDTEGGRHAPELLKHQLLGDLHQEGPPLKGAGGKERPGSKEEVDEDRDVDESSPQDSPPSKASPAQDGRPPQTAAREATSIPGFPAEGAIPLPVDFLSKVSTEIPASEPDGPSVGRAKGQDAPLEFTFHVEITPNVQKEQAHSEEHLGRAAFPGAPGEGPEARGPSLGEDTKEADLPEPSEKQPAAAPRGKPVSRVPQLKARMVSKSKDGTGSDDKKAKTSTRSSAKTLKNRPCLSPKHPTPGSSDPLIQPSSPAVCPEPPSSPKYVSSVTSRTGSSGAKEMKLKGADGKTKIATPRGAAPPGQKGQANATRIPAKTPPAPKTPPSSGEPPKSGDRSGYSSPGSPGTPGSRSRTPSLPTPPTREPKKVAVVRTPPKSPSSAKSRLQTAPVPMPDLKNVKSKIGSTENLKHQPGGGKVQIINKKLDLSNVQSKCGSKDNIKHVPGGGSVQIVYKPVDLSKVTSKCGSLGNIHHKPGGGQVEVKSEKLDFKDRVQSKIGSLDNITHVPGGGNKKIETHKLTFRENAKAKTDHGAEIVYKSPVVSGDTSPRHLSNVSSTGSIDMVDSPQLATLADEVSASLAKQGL

[9] = tested on: Mus musculus; experiment: Antialzheimer activity in APP1/PS1 transgenic mouse assessed as decrease in escape latencies at 30 mg/kg, ip administered 100 days prior to testing and measured at day 6 post continuous dosing by Morris water maze test; type: functional, organism-based

SMILES | EC50 [1] [µM] | also measured
COc1ccc(Cl)cc1N(CC(=O)Nc1ccccc1)S(=O)(=O)c1ccccc1 | > 20 | 
CCn1ccc2cc(NC(=O)CN(c3cc(Cl)ccc3OC)S(=O)(=O)c3ccccc3)ccc21 | 2.22 | 
COc1ccc(NC(=O)CN(c2cc(Cl)ccc2OC)S(=O)(=O)c2ccccc2)cc1 | 16.2 | 
COc1ccc(Cl)cc1N(CC(=O)Nc1cccc2ccccc12)S(=O)(=O)c1ccccc1 | 17.4 | 
COc1ccc(Cl)cc1N(CC(=O)NC12CC3CC(C)(CC(C)(C3)C1)C2)S(=O)(=O)c1ccccc1 | 0.22 | Activity [2]: Active; Activity [3]: Non-Toxic; inhibition [4]: Active; Activity [5]: Non-Toxic; Activity [6]: Non-Toxic; inhibition [7]: Active; inhibition [8]: Active; Activity [9]: Active
COc1ccc(Cl)cc1N(CC(=O)NC1CCCCC1)S(=O)(=O)c1ccccc1 | 17.6 | 
COc1ccc(Cl)cc1N(CC(=O)Nc1ccc(C(F)(F)F)cc1)S(=O)(=O)c1ccccc1 | 3.75 | inhibition [4]: Active; inhibition [7]: Active; inhibition [8]: Active
Cc1c(Cl)cccc1N(CC(=O)NC12CC3CC(C)(CC(C)(C3)C1)C2)S(=O)(=O)c1ccccc1 | > 20 | 
COc1ccc(Cl)cc1N(CC(=O)Nc1ccc([N+](=O)[O-])cc1)S(=O)(=O)c1ccccc1 | 8.21 | 
CCN(CC)C(=O)CN(c1cc(Cl)ccc1OC)S(=O)(=O)c1ccccc1 | > 20 | 
CCn1c2ccccc2c2cc(NC(=O)CN(c3cc(Cl)ccc3OC)S(=O)(=O)c3ccccc3)ccc21 | 0.25 | inhibition [4]: Active; inhibition [7]: Active
CCCNC(=O)CN(c1cc(Cl)ccc1OC)S(=O)(=O)c1ccccc1 | > 20 | 
CC12CC3CC(C)(C1)CC(NC(=O)CN(c1ccccc1)S(=O)(=O)c1ccccc1)(C3)C2 | > 20 | 
COc1ccc(Cl)cc1N(CC(=O)N(C1CCCCC1)C1CCCCC1)S(=O)(=O)c1ccccc1 | 14.3 | 
Cc1ccc(N(CC(=O)NC23CC4CC(C)(CC(C)(C4)C2)C3)S(=O)(=O)c2ccccc2)cc1Cl | 8.86 | 
CC12CC3CC(C)(C1)CC(NC(=O)CN(C1CCCCC1)S(=O)(=O)c1ccccc1)(C3)C2 | > 20 | 
CC12CC3CC(C)(C1)CC(NC(=O)CN(c1ccccc1Cl)S(=O)(=O)c1ccccc1)(C3)C2 | 16.1 | 
COc1ccc(Cl)cc1N(CC(=O)Nc1ccc(Cl)cc1)S(=O)(=O)c1ccccc1 | > 20 | 

SMILES | EC50 [1] [µM] | also measured
CC12CC3CC(C)(C1)CC(NC(=O)CN(c1ccc(Cl)cc1)S(=O)(=O)c1ccccc1)(C3)C2 | > 20 | 
COc1ccc(Cl)cc1N(CC(=O)N1CCCCC1)S(=O)(=O)c1ccccc1 | 14.5 | inhibition [4]: Active
COc1ccc(Cl)cc1N(CC(=O)NC12CC3CC(C)(CC(C)(C3)C1)C2)S(=O)(=O)c1ccc(C)cc1 | > 20 | 
COc1ccc(Cl)cc1N(CC(=O)Nc1cccc2c1[nH]c1ccccc12)S(=O)(=O)c1ccccc1 | 6.56 | 
COc1ccc(Cl)cc1N(CC(=O)NC12CC3CC(C)(CC(C)(C3)C1)C2)S(=O)(=O)c1ccc([N+](=O)[O-])cc1 | > 20 | 
COc1ccc(Cl)cc1N(CC(=O)Nc1ccc2c(c1)c1ccccc1n2C)S(=O)(=O)c1ccccc1 | 1.32 | 
COc1cccc(NC(=O)CN(c2cc(Cl)ccc2OC)S(=O)(=O)c2ccccc2)c1 | 17.6 | 
COc1ccc(Cl)cc1NC(=O)CN(c1cc(Cl)ccc1OC)S(=O)(=O)c1ccccc1 | > 20 | 
COc1ccccc1NC(=O)CN(c1cc(Cl)ccc1OC)S(=O)(=O)c1ccccc1 | 15.5 | 
CC12CC3CC(C)(C1)CC(NC(=O)CN(c1cccc(Cl)c1)S(=O)(=O)c1ccccc1)(C3)C2 | 12.3 | 
COc1ccc(NC(=O)CN(c2cc(Cl)ccc2OC)S(=O)(=O)c2ccccc2)cc1OC | > 20 | 
COc1ccc(CNC(=O)CN(c2cc(Cl)ccc2OC)S(=O)(=O)c2ccccc2)cc1 | > 20 | 
COc1ccc(Cl)cc1N(CC(=O)N1CCc2ccccc21)S(=O)(=O)c1ccccc1 | > 20 | 
COc1ccc(Cl)cc1N(CC(=O)Nc1cccc2c3ccccc3n(C)c12)S(=O)(=O)c1ccccc1 | 3.18 | inhibition [4]: Active; inhibition [7]: Active
COc1ccc(Cl)cc1N(CC(=O)NC12CC3CC(C)(CC(C)(C3)C1)C2)S(=O)(=O)c1ccc(Cl)cc1 | > 20 | 
COc1ccc(Cl)cc1N(CC(=O)Nc1ccc2[nH]c3ccccc3c2c1)S(=O)(=O)c1ccccc1 | 2.75 | 
COc1ccc(Cl)cc1N(CC(=O)NC12CC3CC(C)(CC(C)(C3)C1)C2)C(=O)c1ccccc1 | > 20 | 
